The text below walks through data of patent US11266655B2, “Methods and compositions for treating urea cycle disorders” (Camp4 Therapeutics Corporation, priority 2019, dated 2022).

Entries after “also recorded” stand apart in the source; their conditions may differ.

Assay [1] deals with CPS1. Description: HSP90 inhibitor dose titration in hepatocytes of donors A and B, CPS1 mRNA normalized to B2M. The settings on record: 18 hours. The format is cell-based, human. The method, then:
(§1) Additional small molecules that inhibit HSP90 or HSP70 were tested in primary human hepatocytes as described in Example 2. HSP90 or HSP70 inhibitors were tested in triplicate at 0.3 μM and 3 μM. The results are shown as the fold change (mRNA FC) in the mRNA levels of OTC and CPS1 genes after treatment compared to an untreated control (DMSO) and the standard deviation (SD). In addition, a dose titration experiment was performed with selected HSP90 inhibitors. Hepatocytes were incubated with increasing concentrations of HSP90 inhibitors and the changes in OTC and CPS1 expression quantified as previously described.
(§2) Hepatocytes from two different donors (A and B) were incubated with the various concentrations of HSP90 inhibitors for 18 hours and harvested for mRNA analysis. OTC and CPS1 mRNA were normalized to house keeping gene B2M gene expression.

The test system of assay [2] is HSP90. The following applies: cited from earlier work.
Assay [3] has as its system chromatin domain upstream of the OTC gene. In words: ATAC-seq of the OTC insulated neighborhood in inhibitor-treated hepatocytes. The following applies: 17 hours of inhibitor treatment.
The subject of assay [4] is ARG1. Description: Urea cycle gene expression in Hep3B cells, ARG1. The following applies: FIG. 31B. Type of assay: cell-based, human.
Assay [5] concerns CPS1. In words: Urea cycle gene expression in Hep3B cells, CPS1. The format is cell-based, human. The following applies: FIG. 31B.
The test system of assay [6] is ASS1. In words: Urea cycle gene expression in Hep3B cells, ASS1. The settings on record: FIG. 31B. The format is cell-based, human.
The subject of assay [7] is OTC. In words: HSP90 or HSP70 inhibitors in primary human hepatocytes, OTC mRNA. The format is cell-based. The following applies: hepatocytes from Donor B, normalized to B2M.
The subject of assay [8] is CPS1. Description: HSP90 or HSP70 inhibitors in primary human hepatocytes, CPS1 mRNA. Type of assay: cell-based. The following applies: hepatocytes from Donor B, normalized to B2M.
The test system of assay [9] is OTC. In words: HSP90 inhibitor dose titration in hepatocytes of donors A and B, OTC mRNA normalized to B2M. The following applies: 18 hours. Type of assay: cell-based, human. The procedure:
as §1, §2

The test system of assay [10] is Hep3B cells. Description: Urea production in Hep3B cells, Blood Urea Nitrogen Assay Kit on spent media. Type of assay: cell-based, human. The following applies: increasing concentrations from 0.03 μM.
For assay [11], the system named is NAGS. In words: Urea cycle gene expression in Hep3B cells, NAGS. Type of assay: cell-based, human. The settings on record: FIG. 31B.
The nature of assay [12]: EC144 in C57/B16 mice, liver As1 mRNA by qRT-PCR. Type of assay: in vivo, mouse. The settings on record: 5 mg/kg i.p. once daily for 4 days, FIG. 32. The procedure:
(§3) The in vivo effect of EC144 was assessed.
(Quantitative PCR measures a nucleic acid by following its amplification.)

Assay [13] deals with Nags. The settings on record: mice, 5 mg/kg i.p. once daily for 4 days, FIG. 32.
In assay [14] the test system is Arg1. In words: EC144 in C57/B16 mice, liver Arg1 mRNA by qRT-PCR. The format is in vivo, mouse. The settings on record: 5 mg/kg i.p. once daily for 4 days, FIG. 32. The procedure:
as §3

The test system of assay [15] is Ass1. In words: EC144 in C57/B16 mice, liver Ass1 mRNA by qRT-PCR. The format is in vivo, mouse. The settings on record: 5 mg/kg i.p. once daily for 4 days, FIG. 32. The method, then: as §3
Assay [16] can be described thus: EC144 in C57/B16 mice, serum urea levels (Blood Urea Nitrogen Assay Kit). The following applies: 5 mg/kg i.p. once daily for 4 days, 5 h, 7 h or 9 h post-dose, vs vehicle. The format is in vivo, mouse. The procedure: as §3
Serum urea levels were measured using the Blood Urea Nitrogen Assay Kit (Invitrogen, Cat #EIABUN) per manufacturer's instructions. The data was plotted in GraphPad and statistical significance of the data sets determined using the Holm-Sidak method for multiple comparisons (α=0.05).

For assay [17], the system named is Cps1. In words: EC144 in C57/B16 mice, liver Cps1 mRNA by qRT-PCR. Type of assay: in vivo, mouse. The procedure:
as §3

Assay [18] deals with Otc. In words: EC144 in C57/B16 mice, liver Otc mRNA by qRT-PCR. The format is in vivo, mouse. The method, then: as §3
Setting [19] is: mice, 5 mg/kg i.p. once daily for 4 days, FIG. 32.

Consider `COc1c(C)cnc(Cn2cnc3c(Cl)nc(N)nc32)c1C` [BIIB021], for which the “CPS1 mRNA FC, Donor A” value is listed as 0.98 in assay [1] (0.03 uM); 1.40 in assay [1] (0.1 uM); 1.54 in [1] (0.3 uM); 2.75 in assay [1] (1 uM); 4.27 in [1] (3 uM); 6.41 in assay [1] (10 uM). In addition, the “CPS1 mRNA FC, Donor B” value in assay [1] (0.03 uM) is reported as 1.05; in [1] (0.1 uM), 1.93; in assay [1] (0.3 uM), 1.95; in assay [1] (1 uM) it was 1.37; in assay [1] (3 uM), 1.13; in [1] (10 uM), 1.83. Also, in assay [2], the EC50 – broadly, the concentration that produces a half-maximal response – was […]. Also, the Ki (usually the equilibrium dissociation constant of an inhibitor or competing ligand from its target) in assay [2] is […]. Moreover, the “accessibility of previously available chromatin upstream of the OTC gene (ATAC-seq)” value in assay [3] is reported as “increase in accessibility”. Also, the “newly accessible chromatin domain upstream of the OTC gene (ATAC-seq)” value in assay [3] is given as “newly accessible chromatin domain”. Besides, the “ARG1 expression in Hep3B cells” value in assay [4] is “Increases”. Also, the “CPS1 expression in Hep3B cells” value in [5] is recorded as “Increases”. The “ASS1 expression in Hep3B cells” value in assay [6] is given as “Increases”. For the same compound, the figures for the “OTC Expression mRNA FC” value in [7] (0.3 uM) and in assay [7] (3 uM) were 0.95 and 3.12, respectively. Besides, the “CPS1 Expression mRNA FC” value in assay [8] (0.3 uM) was determined as 0.67; in [8] (3 uM), 2.18. The “OTC mRNA FC, Donor A” value in [9] (0.03 uM) turned out to be 0.84; in assay [9] (0.1 uM) it was 1.13; in assay [9] (0.3 uM) it was 2.46; in assay [9] (1 uM), 5.86; in assay [9] (3 uM), 6.12; in assay [9] (10 uM), 7.61. In addition, the “OTC mRNA FC, Donor B” value stood at 1.24 in assay [9] (0.03 uM); 4.23 in assay [9] (0.1 uM); 15.30 in assay [9] (0.3 uM); 9.49 in assay [9] (1 uM); 6.59 in assay [9] (3 uM); 7.17 in assay [9] (10 uM). The urea production result in [10] was “dose-dependent increase; also recorded: increases”. For the same compound, the “NAGS expression in Hep3B cells” value in [11] was “Increases”.
As to `COc1c(C)cnc(Cn2cc(C#CCC(C)(C)O)c3c(Cl)nc(N)nc32)c1C` [EC144], the “As1 expression in vivo” value in assay [12] is listed as “increased”. The “Nags expression in vivo” value in assay [13] is “increased”. Also, in [14], the “Arg1 expression in vivo” value is listed as “increased”. Further, the “Ass1 expression in vivo” value in assay [15] is “increased”. Further, the serum urea levels result in [16] was “increased”. In addition, the “Cps1 expression over time” value in assay [17] (9 h after administration as compared to 5 h) is “greater expression”. The “Cps1 expression in vivo” value in assay [17] (at 5 h, 7 h, and 9 h after administration, FIG. 33B) is listed as “increased”; in assay [17] (setting [19]) it was “increased”. The “Otc expression in vivo” value is “increased” in assay [18] (5 h after administration, FIG. 33A) and “increased” in assay [18] (setting [19]).
